Test results: article PMC7923228, “Phosphoinositide 3-Kinase (PI3K) Reactive Oxygen Species (ROS)-Activated Prodrug in Combination with Anthracycline Impairs PI3K Signaling, Increases DNA Damage Response and Reduces Breast Cancer Cell Growth” (International Journal of Molecular Sciences, 2021)
Where “and” joins values, the source holds several entries; their conditions need not be identical. Identical values can stand only once. Like-named read-outs stand apart in the source and are kept apart here.

Experiments:
MDA-MB-361 cells [1] = test system: MDA-MB-361 cells
Method: (§1) Growth kinetics of fibroblasts, MCF10A, MDA-MB-231, MDA-MB-361 and MDA-MB-453 cells was determined by the 4,5-dimethylthiazol-2-yl)-2,5-diphenyltetrazolium bromide (MTT) assay. Briefly, 2 × 10^4 cells/well were seeded in 96 well plates in triplicate. […] MDA-MB-231 cells were treated with 500–5000 nM, MDA-MB-361 with 50–450 nM and MDA-MB-453 with 100–4000 nM of doxorubicin for 72 h. […] MDA-MB-231 cells were treated with 50–50,000 pM docetaxel. MDA-MB-361 cells were treated with 10–90 nM of docetaxel. MDA-MB-453 cells were subjected 50–10,000 pM of docetaxel. The cell proliferation was analyzed after 72 h and represented as mean of triplicate values relative to DMSO control.

[2] = test system: p-AKT, p-P53, p-CHK1, p-CHK2 in MDA-MB-231, MDA-MB-361 and MDA-MB-453 cells; format: cell-based, Human; settings: for phosphorylation of AKT at Thr308: data not shown; for phosphorylation of CHK2 at T68: most notably in MDA-MB-361 and MDA-MB-453 versus vehicle control, 24 h
From the text: Cells were lysed in RIPA buffer (Thermo Fisher Scientific, Waltham, MA, USA, Cat#BP-115) supplemented with protease and phosphatase inhibitors (Thermo Fisher Scientific, Cat#88669). […] Peroxidase-conjugated secondary antibodies (Santa Cruz Biotechnology) were used and protein signals were detected using Pierce ECL western blotting substrate (Thermo Fisher Scientific, Cat# 32106).

MDA-MB-453 cells [3] = assay: MTT cell viability assay, 72 h
Method: as §1

MDA-MB-231 cells [4] = assay: MTT cell viability assay, 72 h
Method: as §1

NH fibroblasts = assay: cells; format: cell-based
[5] = test system: MDA-MB-231, MDA-MB-361 and MDA-MB-453 cells; assay: MTT cell viability assay, combination treatments, 72 h; format: cell-based, Human
Method: as §1

MCF10A cells = assay: cells; format: cell-based; settings: for IC50: 72 h MTT
Method: as §1

[6] = test system: MCF10A, MDA-MB-231, MDA-MB-361 and MDA-MB-453 cells; assay: Intracellular ROS, DCFDA assay; format: cell-based; settings: 125 nM, 30 min
Method: The cells were resuspended in dichlorodihydrofluorescein diacetate (DCFH-DA) for 30 min […] using the CellQuest software v4.0.1 (Becton Dickinson and Company, Franklin Lakes, NJ, USA) to measure the ROS levels. The DCFH-DA levels were measured using a SPECTRAmax PLUS Microplate Spectrophotometer Plate Reader (Molecular Devices Corporation).

MDA-MB-361 cells [7] = assay: cells; settings: Homo sapiens, MDA-MB-361, 72 h
Method: as §1

MDA-MB-231 cells [8] = test system: MDA-MB-231 cells
Method: as §1

MDA-MB-453 cells [9] = test system: MDA-MB-453 cells
Method: as §1

[10] = test system: PIK3CA-mutated, hormone receptor (HR)-positive, HER2-negative advanced breast cancer; set-up: method as in PMID 31091374; settings: cited from earlier work
PI3Kɣ = test system: PI3Kɣ; set-up: method as in PMID 19584227; settings: read-out: IC50 against PI3Kɣ; cited from earlier work

## ROS-induced drug release 3-(4-morpholinopyrido[3′,2′:4,5]furo[3,2-d]pyrimidin-2-yl)phenol [RIDR-PI-103]
MDA-MB-361 cells [1]; MDA-MB-361, 72 h MTT
  IC50: 43000 nM
[2]
  phosphorylation of AKT at Thr308: no effect
  phosphorylation of CHK2 at T68: increased phosphorylation
MDA-MB-453 cells [3]; MDA-MB-453, 72 h MTT
  IC50: 49.1 µM
MDA-MB-231 cells [4]; MDA-MB-231, 72 h MTT
  IC50: 47.3 µM
NH fibroblasts; normal fibroblasts, 50 µM or greater, 72 h
  response to treatment (growth): did not respond appreciably
[5]; 10, 15 and 30 µM RIDR-PI-103, MDA-MB-231, MDA-MB-361 and MDA-MB-453
  effect on cytotoxicity of doxorubicin: enhances the cytotoxicity
[5]; three breast cancer cell lines, 50 µM or greater, 72 h
  growth inhibition: showed growth inhibition
MCF10A cells; 50 µM or greater, 72 h
  response to treatment (growth): did not respond appreciably
MCF10A cells
  IC50: 78.6 µM

## CC(=O)N[C@@H](CS)C(=O)O [NAC, N-Acetyl Cysteine]
MDA-MB-231 cells [4]; MDA-MB-231, 10 mM NAC, 125 nM doxorubicin ± 30 µM RIDR-PI-103, 24 hour
  rescue of antiproliferative effects of RIDR-PI-103 and doxorubicin: rescued the antiproliferative effects

## COc1cccc2c1C(=O)c1c(O)c3c(c(O)c1C2=O)C[C@@](O)(C(=O)CO)C[C@@H]3O[C@H]1C[C@H](N)[C@H](O)[C@H](C)O1 [Doxorubicin]
MDA-MB-361 cells [1]
  IC50: 111 nM and 110 nM and 73.2 nM
[6]
  ROS levels: induced ROS
MDA-MB-361 cells [7]; read-out: IC50 (MDA-MB-361)
  IC50: 116 nM
MDA-MB-231 cells [8]
  IC50: 185 nM and 146 nM
[2]
  p53 phosphorylation at Ser15: didn’t observe p53 post-translational modification activation
  phosphorylation of AKT at Thr308: no effect
  phosphorylation of CHK2 at T68: increased phosphorylation
MDA-MB-453 cells [3]; Homo sapiens, MDA-MB-453, 72 h, read-out: IC50 (MDA-MB-453)
  IC50: 0.579 µM
MDA-MB-231 cells [4]; Homo sapiens, MDA-MB-231, 72 h, read-out: IC50 (MDA-MB-231)
  IC50: 0.405 µM
MDA-MB-453 cells [9]
  IC50: 530 nM and 516 nM and 478 nM

## Cc1nc(NC(=O)N2CCC[C@H]2C(N)=O)sc1-c1ccnc(C(C)(C)C(F)(F)F)c1 [alpelisib, Alpelisib]
[10]; alpelisib in combination with fulvestrant, patients who had received endocrine therapy previously
  improvement of progression-free survival compared with fulvestrant alone: about 5 months
[10]; patients receiving alpelisib
  adverse events: high risk of hyperglycemia-related adverse events

## Oc1cccc(-c2nc(N3CCOCC3)c3oc4ncccc4c3n2)c1 [PI-103, 3-(4-morpholinopyrido[3′,2′:4,5]furo[3,2-d]pyrimidin-2-yl)phenol]
MDA-MB-361 cells [7]
  IC50: 1700 nM
MDA-MB-453 cells [3]; Homo sapiens, MDA-MB-453, 72 h
  IC50: 0.82 µM
PI3Kɣ
  IC50: 15 nM
NH fibroblasts; Fibroblast, fibroblasts, 72 h MTT
  IC50: 3.9 µM
MCF10A cells; Homo sapiens, MCF-10A
  IC50: 3.8 µM

## CC(=O)O[C@@]12CO[C@@H]1C[C@H](O)[C@@]1(C)C(=O)[C@H](O)C3=C(C)[C@@H](OC(=O)[C@H](O)[C@@H](NC(=O)OC(C)(C)C)c4ccccc4)C[C@@](O)([C@@H](OC(=O)c4ccccc4)[C@H]21)C3(C)C [docetaxel]
[5]; docetaxel + 10, 15 or 30 µM RIDR-PI-103, 72 h
  suppression of breast cancer cell growth in combination with RIDR-PI-103: less effective
